Test results: ChEMBL document CHEMBL3400053, “trans-3,4-Disubstituted pyrrolidines as inhibitors of the human aspartyl protease renin. Part II: prime site exploration using an oxygen linker” (Bioorg Med Chem Lett, 2015)

Legend:
Cytochrome P450 3A4 = Cytochrome P450 3A4 (Homo sapiens, UniProt P08684); test: Inhibition of CYP3A4 (unknown origin) using 7-benzyl-4-trifluoromethylcoumarin as fluorometric substrate; type: ADME
Renin = target: T1, Renin (Homo sapiens, UniProt P00797); test: Inhibition of human recombinant renin in presence of plasma by TR-FRET assay
T1 sequence (P00797 whole entry): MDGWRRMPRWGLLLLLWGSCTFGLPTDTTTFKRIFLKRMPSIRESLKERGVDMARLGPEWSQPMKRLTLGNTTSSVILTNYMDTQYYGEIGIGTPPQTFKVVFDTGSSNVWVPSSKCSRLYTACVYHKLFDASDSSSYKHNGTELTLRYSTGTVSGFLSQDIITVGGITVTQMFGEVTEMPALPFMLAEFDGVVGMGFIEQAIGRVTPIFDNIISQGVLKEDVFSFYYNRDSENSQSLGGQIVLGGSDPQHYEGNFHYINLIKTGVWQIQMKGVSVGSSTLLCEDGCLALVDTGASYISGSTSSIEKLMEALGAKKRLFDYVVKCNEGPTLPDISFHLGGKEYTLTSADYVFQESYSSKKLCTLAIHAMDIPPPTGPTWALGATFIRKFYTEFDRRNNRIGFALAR

[1] = target: T2, Alpha-2A adrenergic receptor (Homo sapiens, UniProt P08913); test: Inhibition of alpha-adrenoceptor 2A (unknown origin)
T2 sequence (P08913 whole entry): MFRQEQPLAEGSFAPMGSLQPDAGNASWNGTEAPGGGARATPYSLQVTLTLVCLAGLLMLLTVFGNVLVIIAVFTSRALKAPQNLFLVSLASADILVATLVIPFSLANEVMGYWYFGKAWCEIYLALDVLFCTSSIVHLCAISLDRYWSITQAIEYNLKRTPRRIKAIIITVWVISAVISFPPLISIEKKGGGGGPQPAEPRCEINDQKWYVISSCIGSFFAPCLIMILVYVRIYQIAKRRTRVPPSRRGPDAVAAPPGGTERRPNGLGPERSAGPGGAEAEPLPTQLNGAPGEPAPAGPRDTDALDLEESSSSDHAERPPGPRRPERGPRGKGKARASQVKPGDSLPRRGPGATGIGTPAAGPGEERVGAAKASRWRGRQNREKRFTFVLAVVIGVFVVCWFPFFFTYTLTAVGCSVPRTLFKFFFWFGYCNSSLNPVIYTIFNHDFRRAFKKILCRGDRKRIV

[2] = target: T3, Alpha-2B adrenergic receptor (Homo sapiens, UniProt P18089); test: Inhibition of alpha-adrenoceptor 2B (unknown origin)
T3 sequence (P18089 whole entry): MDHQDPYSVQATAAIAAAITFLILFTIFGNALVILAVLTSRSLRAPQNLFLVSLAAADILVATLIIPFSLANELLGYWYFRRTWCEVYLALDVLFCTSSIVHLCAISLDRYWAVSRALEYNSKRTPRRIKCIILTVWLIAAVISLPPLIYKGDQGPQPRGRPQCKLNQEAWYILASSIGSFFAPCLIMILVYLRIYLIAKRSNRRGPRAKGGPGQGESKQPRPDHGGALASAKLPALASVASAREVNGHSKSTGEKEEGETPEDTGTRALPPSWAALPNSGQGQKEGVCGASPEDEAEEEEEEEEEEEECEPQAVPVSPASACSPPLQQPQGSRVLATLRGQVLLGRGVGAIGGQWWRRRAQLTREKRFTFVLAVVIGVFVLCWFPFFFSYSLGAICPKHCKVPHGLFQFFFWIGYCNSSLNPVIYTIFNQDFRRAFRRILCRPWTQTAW

Mu-type opioid receptor = Mu-type opioid receptor (Homo sapiens, UniProt P35372); test: Inhibition of mu opioid receptor (unknown origin)
Phosphodiesterase 3 = Phosphodiesterase 3 (Homo sapiens, UniProt Q14432+Q13370); test: Inhibition of PDE3 (unknown origin); type: protein assay
[3] = target: T4, Alpha-1A adrenergic receptor (Homo sapiens, UniProt P35348); test: Inhibition of alpha-adrenoceptor 1A (unknown origin)
T4 sequence (P35348 whole entry): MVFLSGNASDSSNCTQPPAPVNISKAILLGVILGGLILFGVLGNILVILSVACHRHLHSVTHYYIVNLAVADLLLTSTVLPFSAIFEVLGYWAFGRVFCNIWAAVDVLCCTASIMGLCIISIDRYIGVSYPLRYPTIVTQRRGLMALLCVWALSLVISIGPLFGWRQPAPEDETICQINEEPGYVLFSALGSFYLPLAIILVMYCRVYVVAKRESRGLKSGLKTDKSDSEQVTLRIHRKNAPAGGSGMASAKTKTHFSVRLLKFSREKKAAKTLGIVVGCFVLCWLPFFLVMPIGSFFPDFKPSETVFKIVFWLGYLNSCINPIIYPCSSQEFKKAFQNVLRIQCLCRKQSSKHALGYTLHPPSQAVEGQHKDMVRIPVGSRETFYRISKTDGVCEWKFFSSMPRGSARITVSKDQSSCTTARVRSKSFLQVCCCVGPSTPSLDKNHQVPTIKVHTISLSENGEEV

Beta-secretase 1 = Beta-secretase 1 (Homo sapiens, UniProt P56817); test: Inhibition of BACE1 (unknown origin)
Cathepsin D = Cathepsin D (Homo sapiens, UniProt P07339); test: Inhibition of cathepsin D (unknown origin)
Cathepsin E = target: T5, Cathepsin E (Homo sapiens, UniProt P14091); test: Inhibition of cathepsin E (unknown origin)
T5 sequence (P14091 whole entry): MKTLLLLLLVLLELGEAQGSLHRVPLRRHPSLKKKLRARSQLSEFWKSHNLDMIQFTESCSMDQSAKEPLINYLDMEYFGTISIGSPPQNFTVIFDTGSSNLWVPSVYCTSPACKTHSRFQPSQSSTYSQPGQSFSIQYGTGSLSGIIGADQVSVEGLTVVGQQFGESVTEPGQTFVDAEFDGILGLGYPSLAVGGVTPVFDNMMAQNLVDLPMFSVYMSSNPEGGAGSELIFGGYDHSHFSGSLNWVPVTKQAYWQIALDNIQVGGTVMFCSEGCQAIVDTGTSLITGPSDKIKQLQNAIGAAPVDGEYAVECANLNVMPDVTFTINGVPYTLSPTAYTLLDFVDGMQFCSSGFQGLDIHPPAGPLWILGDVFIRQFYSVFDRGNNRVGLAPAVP

[4] = target: Voltage-gated inwardly rectifying potassium channel KCNH2 (Homo sapiens, UniProt Q12809); test: Inhibition of human ERG by dofetilide binding assay
[5] = Solubility in aqueous buffer at pH 6.8; type: physicochemical
Cytochrome P450 2C9 = Cytochrome P450 2C9 (Homo sapiens, UniProt P11712); test: Inhibition of CYP2C9 (unknown origin); type: ADME
Rattus norvegicus [6] = test: Oral bioavailability in cannulated fed Sprague-Dawley rat at 6 mg/kg; type: ADME, organism-based; details: in vivo
[7] = Half life in cannulated fed Sprague-Dawley rat at 2 mg/kg, iv; type: ADME, organism-based; parameters: dose 2 mg/kg, route intravenous; details: in vivo
Rattus norvegicus [8] = test: Plasma clearance in cannulated fed Sprague-Dawley rat at 2 mg/kg, iv; type: ADME, organism-based; parameters: dose 2 mg/kg, route intravenous; details: in vivo
[9] = Cmax in cannulated fed Sprague-Dawley rat at 6 mg/kg, po; type: ADME, organism-based; parameters: dose 6 mg/kg, route oral; details: in vivo
Rattus norvegicus [10] = test: Reduction in mean arterial blood pressure in hypertensive telemetered double-transgenic rat overexpressing human renin and angiotensinogen at 6 mg/kg, po; type: functional
Rattus norvegicus [11] = test: Reduction in mean arterial blood pressure in hypertensive telemetered double-transgenic rat overexpressing human renin and angiotensinogen at 30 mg/kg, po; type: functional

Chain of Beta-secretase 1 (P56817 whole entry): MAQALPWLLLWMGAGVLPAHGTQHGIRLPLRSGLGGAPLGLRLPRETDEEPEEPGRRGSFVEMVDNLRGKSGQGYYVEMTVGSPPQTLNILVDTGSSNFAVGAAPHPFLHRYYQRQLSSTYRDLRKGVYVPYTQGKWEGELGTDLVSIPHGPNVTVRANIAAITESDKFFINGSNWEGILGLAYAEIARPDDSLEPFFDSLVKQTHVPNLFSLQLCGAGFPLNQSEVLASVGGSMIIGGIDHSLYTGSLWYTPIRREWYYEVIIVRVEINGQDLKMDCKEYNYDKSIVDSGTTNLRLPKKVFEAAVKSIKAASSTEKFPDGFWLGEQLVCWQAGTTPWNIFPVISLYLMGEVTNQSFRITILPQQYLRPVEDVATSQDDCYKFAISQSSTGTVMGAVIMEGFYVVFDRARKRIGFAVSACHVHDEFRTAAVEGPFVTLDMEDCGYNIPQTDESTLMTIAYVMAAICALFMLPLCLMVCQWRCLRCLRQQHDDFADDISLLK
Chain of Cathepsin D (P07339 65-162 limits assumed): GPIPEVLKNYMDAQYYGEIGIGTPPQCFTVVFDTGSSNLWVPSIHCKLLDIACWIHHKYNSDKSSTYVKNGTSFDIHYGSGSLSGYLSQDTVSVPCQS
Chain of Cathepsin D (P07339 169-412 limits assumed): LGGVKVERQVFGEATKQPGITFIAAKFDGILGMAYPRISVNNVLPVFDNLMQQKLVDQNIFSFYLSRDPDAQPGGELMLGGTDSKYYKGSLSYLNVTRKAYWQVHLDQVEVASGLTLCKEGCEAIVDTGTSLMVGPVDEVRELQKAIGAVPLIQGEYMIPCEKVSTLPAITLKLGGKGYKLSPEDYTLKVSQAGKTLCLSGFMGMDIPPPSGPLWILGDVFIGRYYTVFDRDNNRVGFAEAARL
Chain of Voltage-gated inwardly rectifying potassium channel KCNH2 (Q12809 whole entry): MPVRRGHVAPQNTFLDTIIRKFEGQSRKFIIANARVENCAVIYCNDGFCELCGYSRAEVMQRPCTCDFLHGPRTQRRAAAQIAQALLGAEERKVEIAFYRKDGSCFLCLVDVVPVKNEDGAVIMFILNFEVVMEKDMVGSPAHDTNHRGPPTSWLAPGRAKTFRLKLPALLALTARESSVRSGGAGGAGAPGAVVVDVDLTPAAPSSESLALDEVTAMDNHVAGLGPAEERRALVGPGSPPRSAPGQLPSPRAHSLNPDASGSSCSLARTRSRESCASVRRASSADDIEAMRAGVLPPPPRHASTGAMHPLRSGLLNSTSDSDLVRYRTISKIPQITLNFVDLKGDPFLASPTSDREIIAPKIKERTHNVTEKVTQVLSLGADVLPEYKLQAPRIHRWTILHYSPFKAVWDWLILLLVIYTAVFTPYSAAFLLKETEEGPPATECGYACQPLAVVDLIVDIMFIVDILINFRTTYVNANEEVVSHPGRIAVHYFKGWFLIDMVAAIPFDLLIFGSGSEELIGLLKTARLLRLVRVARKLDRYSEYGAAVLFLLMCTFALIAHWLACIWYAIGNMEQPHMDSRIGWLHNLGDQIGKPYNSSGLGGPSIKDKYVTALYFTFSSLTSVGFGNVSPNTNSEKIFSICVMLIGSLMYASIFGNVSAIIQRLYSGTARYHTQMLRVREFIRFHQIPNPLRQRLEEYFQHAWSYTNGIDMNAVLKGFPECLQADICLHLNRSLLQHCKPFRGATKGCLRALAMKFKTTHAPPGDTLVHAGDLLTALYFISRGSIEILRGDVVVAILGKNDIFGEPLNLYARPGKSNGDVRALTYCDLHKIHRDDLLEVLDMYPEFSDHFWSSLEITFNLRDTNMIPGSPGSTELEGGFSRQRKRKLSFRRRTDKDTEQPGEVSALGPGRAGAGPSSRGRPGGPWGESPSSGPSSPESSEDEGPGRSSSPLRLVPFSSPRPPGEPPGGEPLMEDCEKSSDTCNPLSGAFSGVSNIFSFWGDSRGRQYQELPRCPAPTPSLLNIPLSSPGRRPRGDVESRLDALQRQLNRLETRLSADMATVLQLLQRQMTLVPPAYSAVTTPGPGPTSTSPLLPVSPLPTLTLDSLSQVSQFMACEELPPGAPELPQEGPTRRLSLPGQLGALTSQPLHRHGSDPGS
Chain of Cytochrome P450 3A4 (P08684 whole entry): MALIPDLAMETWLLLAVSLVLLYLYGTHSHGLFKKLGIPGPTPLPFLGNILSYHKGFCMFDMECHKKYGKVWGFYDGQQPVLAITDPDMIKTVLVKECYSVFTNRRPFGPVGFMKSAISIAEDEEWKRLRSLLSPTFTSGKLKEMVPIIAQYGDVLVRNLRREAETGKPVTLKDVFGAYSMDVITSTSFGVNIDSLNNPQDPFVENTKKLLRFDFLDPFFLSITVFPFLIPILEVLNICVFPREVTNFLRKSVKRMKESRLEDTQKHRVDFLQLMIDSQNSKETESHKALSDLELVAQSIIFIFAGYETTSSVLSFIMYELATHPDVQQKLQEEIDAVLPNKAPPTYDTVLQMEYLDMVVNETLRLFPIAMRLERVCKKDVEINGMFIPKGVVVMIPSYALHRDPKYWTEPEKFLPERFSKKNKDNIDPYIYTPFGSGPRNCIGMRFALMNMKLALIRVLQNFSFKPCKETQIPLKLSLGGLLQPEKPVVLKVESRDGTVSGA
Chain of Cytochrome P450 2C9 (P11712 whole entry): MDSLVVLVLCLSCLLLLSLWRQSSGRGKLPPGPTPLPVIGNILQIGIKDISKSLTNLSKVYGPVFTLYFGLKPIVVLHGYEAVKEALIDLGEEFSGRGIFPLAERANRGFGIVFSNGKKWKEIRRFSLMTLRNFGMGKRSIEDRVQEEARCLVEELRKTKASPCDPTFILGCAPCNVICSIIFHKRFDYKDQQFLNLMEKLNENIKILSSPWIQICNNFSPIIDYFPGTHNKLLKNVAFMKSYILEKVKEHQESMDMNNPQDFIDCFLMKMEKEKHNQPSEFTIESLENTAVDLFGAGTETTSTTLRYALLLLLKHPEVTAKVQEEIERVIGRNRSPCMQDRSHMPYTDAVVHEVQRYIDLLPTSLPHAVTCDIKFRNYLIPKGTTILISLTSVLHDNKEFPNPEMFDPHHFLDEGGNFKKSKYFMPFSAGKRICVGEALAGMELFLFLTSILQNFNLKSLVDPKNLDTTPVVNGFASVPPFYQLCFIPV
Chain of Mu-type opioid receptor (P35372 whole entry): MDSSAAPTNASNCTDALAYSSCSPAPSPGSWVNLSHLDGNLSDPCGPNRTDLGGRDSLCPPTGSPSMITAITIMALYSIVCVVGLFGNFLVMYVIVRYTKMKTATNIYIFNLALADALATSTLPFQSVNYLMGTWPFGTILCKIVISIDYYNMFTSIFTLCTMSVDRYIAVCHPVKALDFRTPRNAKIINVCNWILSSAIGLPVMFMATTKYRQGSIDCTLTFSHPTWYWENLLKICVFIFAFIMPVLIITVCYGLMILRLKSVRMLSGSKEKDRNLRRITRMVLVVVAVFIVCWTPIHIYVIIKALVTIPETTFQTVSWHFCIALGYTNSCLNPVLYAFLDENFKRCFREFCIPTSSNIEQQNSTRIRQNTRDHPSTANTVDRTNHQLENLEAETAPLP

IC50 (Cytochrome P450 3A4): 4000 nM
IC50 (Renin): 30 nM
IC50 [1]: 1000 nM
IC50 [2]: 1000 nM
IC50 (Mu-type opioid receptor): 1000 nM
IC50 (Phosphodiesterase 3): 1000 nM
IC50 [3]: 500 nM
IC50 (Beta-secretase 1): > 30000 nM
IC50 (Cathepsin D): > 30000 nM
IC50 (Cathepsin E): > 30000 nM
solubility [5]: > 1000 µM
IC50 (Cytochrome P450 2C9): > 20000 nM
F (Rattus norvegicus [6]): 57%
half-life [7]: 2.2 h
CL (Rattus norvegicus [8]): 41.7 mL/min/kg
Cmax [9]: 1020 nM
Compound: COCCCOc1cc(C(=O)N(C[C@@H]2CNC[C@H]2OC(=O)NCc2ccccc2)C(C)C)ccc1OC
IC50 [4]: 13000 nM
Activity (Rattus norvegicus [10]): 43 mmHg
Activity (Rattus norvegicus [11]): 62 mmHg
